This is an account of results in patent US8957093B2, “N-biphenylmethylindole modulators of PPARG” (The Scripps Research Institute, priority 2011, dated 2015).

Experiment [1] concerns the target GST-PPARG-LBD (Homo sapiens (Human), UniProt P37231). Put plainly: Lanthascreen PPARG competitive binding assay (Invitrogen, TR-FRET). Particulars: Lanthascreen competitive binding; NA = not active; inc = incomplete curve; read-out: IC50 (nM) Lantha. The procedure:
Lanthascreen PPARG Competitive Binding Assay (Invitrogen)
The assay was performed according to manufacturer protocol. A mixture of […], 5 nM Tb-GST-antibody, 5 nM Fluormone Pan-PPAR Green, and serial dilutions of the experimental compound, beginning at 10 μM downwards, was added to wells of black 384-well low-volume plates (Greiner) to a total volume of 18 μL. All dilutions were made in TR-FRET assay buffer C. DMSO at 2% final concentration was used as a no-ligand control. Experiment was performed in triplicate, and incubated for 2 hours in the dark prior to assay read in Perkin Elmer ViewLux ultra HTS microplate reader. FRET signal was measured by excitation at 340 nm and emission at 520 nm for fluorescein and 490 nm for terbium. Fold change over DMSO was calculated using GraphPad Prism Software (La Jolla, Calif.) by calculating 520 nm/490 nm ratio. Graphs were plotted as fold change of FRET signal for compound treatment over DMSO-only control.

For experiment [2], the target named is Gal-4-PPAR (human PPAR LBD fused to GAL4 DNA-binding domain) (Homo sapiens (Human), UniProt P37231). Briefly: GAL4-PPARG LBD / UAS-luciferase transactivation assay in HEK 293T cells. The note with it: for EC50: GAL4 transactivation, HEK 293T cells, NA = not active, read-out: EC50 (nM) GAL4; for activation at 10 µM: HEK-293T, 18 h, read-out: % transactivation at 10 μM (GAL4). The class given is cell-based.
Chain of Gal-4-PPAR (human PPAR LBD fused to GAL4 DNA-binding domain) (P37231 238-503): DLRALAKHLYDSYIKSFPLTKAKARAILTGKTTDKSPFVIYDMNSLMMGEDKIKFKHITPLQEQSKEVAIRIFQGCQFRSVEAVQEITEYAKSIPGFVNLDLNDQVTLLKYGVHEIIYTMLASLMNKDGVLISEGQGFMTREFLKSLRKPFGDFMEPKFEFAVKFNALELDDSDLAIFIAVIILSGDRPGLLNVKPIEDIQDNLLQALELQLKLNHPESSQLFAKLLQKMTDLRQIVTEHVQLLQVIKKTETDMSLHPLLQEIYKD

Chain of GST-PPARG-LBD (P37231 238-503): as above

Regarding `C[C@H](NC(=O)c1ccc2c(ccn2Cc2ccc(-c3ccccc3)cc2)c1)c1ccc([N+](=O)[O-])cc1` [Example 38, (S)-1-([1,1′-Biphenyl]-4-ylmethyl)-N-(1-(4-nitrophenyl)ethyl)-1H-indole-5-carboxamide], in experiment [1], the IC50 was > 1000 nM. With `C[C@H](NC(=O)c1ccc2c(ccn2Cc2ccc(-c3ccccc3O)cc2)c1)c1ccc([N+](=O)[O-])cc1` [Example 40, (S)-1-((2′-Hydroxy-[1,1′-biphenyl]-4-yl)methyl)-N-(1-(4-nitrophenyl)ethyl)-1H-indole-5-carboxamide], in experiment [1], the IC50 was > 1000 nM. On the same count and under the same terms, as for `C[C@H](NC(=O)c1ccc2c(ccn2Cc2ccc(-c3ccc(S(C)(=O)=O)cc3)cc2)c1)c1ccc([N+](=O)[O-])cc1` [Example 50, (S)-1-((4′-(Methylsulfonyl)-[1,1′-biphenyl]-4-yl)methyl)-N-(1-(4-nitrophenyl)ethyl)-1H-indole-5-carboxamide], the figure is > 1000 nM; as for `CSc1ccc(-c2ccc(Cn3ccc4cc(C(=O)N[C@@H](C)c5ccc([N+](=O)[O-])cc5)ccc43)cc2)cc1` [Example 51, (S)-1-((4′-(Methylthio)-[1,1′-biphenyl]-4-yl)methyl)-N-(1-(4-nitrophenyl)ethyl)-1H-indole-5-carboxamide], > 1000 nM; as for `C[C@H](NC(=O)c1ccc2c(ccn2Cc2ccc(-c3cccc(N)c3)cc2)c1)c1ccc([N+](=O)[O-])cc1` [Example 52, (S)-1-((3′-Amino-[1,1′-biphenyl]-4-yl)methyl)-N-(1-(4-nitrophenyl)ethyl)-1H-indole-5-carboxamide], > 1000 nM. Take `C[C@H](NC(=O)c1ccc2c(ccn2Cc2ccc(-c3cccc(CN)c3)cc2)c1)c1ccc([N+](=O)[O-])cc1` [Example 53, (S)-1-((3′-(Aminomethyl)-[1,1′-biphenyl]-4-yl)methyl)-N-(1-(4-nitrophenyl)ethyl)-1H-indole-5-carboxamide]: in experiment [1], the IC50 is > 1000 nM. Regarding `C[C@H](NC(=O)c1ccc2c(ccn2Cc2ccc(-c3ccccc3CO)cc2)c1)c1ccc([N+](=O)[O-])cc1` [Example 54, (S)-1-((2′-(Hydroxymethyl)-[1,1′-biphenyl]-4-yl)methyl)-N-(1-(4-nitrophenyl)ethyl)-1H-indole-5-carboxamide], the 50% inhibitory concentration (IC50) in experiment [1] was > 1000 nM. Still for that read-out and setting: as for `C[C@H](NC(=O)c1ccc2c(ccn2Cc2ccc(-c3ccccc3C(=O)OC(C)(C)C)cc2)c1)c1ccc([N+](=O)[O-])cc1` [Example 55, (S)-tert-Butyl 4′-((5-((1-(4-nitrophenyl)ethyl)carbamoyl)-1H-indol-1-yl)methyl)-[1,1′-biphenyl]-2-carboxylate], the figure is > 1000 nM; as for `Cc1ccc(-c2ccc(Cn3ccc4cc(C(=O)N[C@@H](C)c5ccc([N+](=O)[O-])cc5)ccc43)cc2)cc1` [Example 57, (S)-1-((4′-Methyl-[1,1′-biphenyl]-4-yl)methyl)-N-(1-(4-nitrophenyl)ethyl)-1H-indole-5-carboxamide], > 1000 nM; as for `C[C@H](NC(=O)c1ccc2c(ccn2Cc2ccc(-c3cccc(Cl)c3)cc2)c1)c1ccc([N+](=O)[O-])cc1` [Example 58, (S)-1-((3′-Chloro-[1,1′-biphenyl]-4-yl)methyl)-N-(1-(4-nitrophenyl)ethyl)-1H-indole-5-carboxamide], > 1000 nM. In the case of `C[C@H](NC(=O)c1ccc2c(ccn2Cc2ccc(-c3ccc(C(=O)O)cc3)cc2)c1)c1ccc([N+](=O)[O-])cc1` [Example 59, (S)-4′-((5-((1-(4-Nitrophenyl)ethyl)carbamoyl)-1H-indol-1-yl)methyl)-[1,1′-biphenyl]-4-carboxylic acid], the IC50 in experiment [1] is > 1000 nM.

Turning to `C[C@H](NC(=O)c1ccc2c(ccn2Cc2ccc(-c3cccc(C(=O)O)c3)cc2)c1)c1ccc([N+](=O)[O-])cc1` [Example 60, (S)-4′-((5-((1-(4-Nitrophenyl)ethyl)carbamoyl)-1H-indol-1-yl)methyl)-[1,1′-biphenyl]-3-carboxylic acid], the half-inhibitory concentration (IC50) in experiment [1] was > 1000 nM. The same measure, in the same setting: as for `C[C@H](NC(=O)c1ccc2c(ccn2Cc2ccc(-c3ccccc3C(=O)O)cc2)c1)c1ccc([N+](=O)[O-])cc1` [Example 61, (S)-4′-((5-((1-(4-Nitrophenyl)ethyl)carbamoyl)-1H-indol-1-yl)methyl)-[1,1′-biphenyl]-2-carboxylic acid], the figure is 646 nM. For the molecule `CCC(NC(=O)c1ccc2c(ccn2Cc2ccccc2-c2ccccc2C(=O)O)c1)c1ccccc1` (stereo not shown) [Example 68, 2′-((5-((1-phenylpropyl)carbamoyl)-1H-indol-1-yl)methyl)-[1,1′-biphenyl]-2-carboxylic acid], in experiment [1], the IC50 was > 1000 nM. In the case of `Cc1c(C)n(Cc2ccc(-c3ccccc3C(=O)O)cc2)c2ccc(C(=O)NCc3cccc(CN)c3)cc12` [Example 82, 4′-((5-(3-(aminomethyl)benzylcarbamoyl)-2,3-dimethyl-1H-indol-1-yl)methyl)biphenyl-2-carboxylic acid], the half-inhibitory concentration (IC50) in experiment [1] is > 1000 nM. Consider `Cc1c(C)n(Cc2ccc(-c3ccccc3C(=O)O)cc2)c2ccc(C(=O)N[C@@H](C)c3ccc(N)cc3)cc12` [Example 99, (S)-4′-((5-(1-(4-aminophenyl)ethylcarbamoyl)-2,3-dimethyl-1H-indol-1-yl)methyl)biphenyl-2-carboxylic acid], for which the IC50 in experiment [1] worked out at 240 nM.

`Cc1c(C)n(Cc2ccc(-c3ccccc3C(=O)O)cc2)c2ccc(C(=O)NCc3ccc(C(F)(F)F)cc3)cc12` [Example 101, 4′-((2,3-dimethyl-5-(4-(trifluoromethyl)benzylcarbamoyl)-1H-indol-1-yl)methyl)biphenyl-2-carboxylic acid]: the IC50 in experiment [1] stood at 208 nM. Consider `Cc1c(C)n(Cc2ccc(-c3ccccc3C(=O)O)cc2)c2ccc(C(=O)NCc3ccc(C(F)(F)F)cc3F)cc12` [Example 167, 4′-((5-((2-fluoro-4-(trifluoromethyl)benzyl)carbamoyl)-2,3-dimethyl-1H-indol-1-yl)methyl)-[1,1′-biphenyl]-2-carboxylic acid], for which, in experiment [2], the EC50 turned out to be 596 nM and the activation at 10 µM was 10%.

As for `Cc1c(C)n(Cc2ccc(-c3ccccc3C(=O)O)cc2)c2ccc(C(=O)NCc3ccc(Cl)cc3Cl)cc12` [Example 168, 4′-((5-((2,4-dichlorobenzyl)carbamoyl)-2,3-dimethyl-1H-indol-1-yl)methyl)-[1,1′-biphenyl]-2-carboxylic acid], in experiment [2], the EC50 worked out at 931 nM and the activation at 10 µM came to 18%. As to `CC[C@@H](NC(=O)c1ccc2c(c1)c(C)c(C)n2Cc1ccccc1-c1cccc(C(=O)O)c1)c1ccccc1` [Example 193, (R)-2′-((2,3-dimethyl-5-((1-phenylpropyl)carbamoyl)-1H-indol-1-yl)methyl)-[1,1′-biphenyl]-3-carboxylic acid], in experiment [2], the EC50 was found to be 191 nM and the activation at 10 µM amounted to 40%.

With `CC[C@H](NC(=O)c1ccc2c(c1)c(C)c(C)n2Cc1ccccc1-c1cccc(C(=O)O)c1)c1ccccc1` [Example 194, (S)-2′-((2,3-dimethyl-5-((1-phenylpropyl)carbamoyl)-1H-indol-1-yl)methyl)-[1,1′-biphenyl]-3-carboxylic acid], in experiment [2], the 50% effective concentration (EC50) is 793 nM and the activation at 10 µM turned out to be 18%. For `CC[C@@H](NC(=O)c1ccc2c(c1)c(C)c(C)n2Cc1ccccc1-c1ccc(C(=O)O)cc1)c1ccccc1` [Example 195, (R)-2′-((2,3-dimethyl-5-((1-phenylpropyl)carbamoyl)-1H-indol-1-yl)methyl)-[1,1′-biphenyl]-4-carboxylic acid], in that order: 169 nM and 35%. As to `Cc1c(C)n(Cc2ccc(-c3ccccc3C(=O)O)cc2)c2ccc(C(=O)N[C@@H](C)c3cccc(OC(C)C)c3)cc12` [Example 199, (S)-4′-((5-((1-(3-isopropoxyphenyl)ethyl)carbamoyl)-2,3-dimethyl-1H-indol-1-yl)methyl)-[1,1′-biphenyl]-2-carboxylic acid], in experiment [2], the EC50 was determined as 2750 nM and the activation at 10 µM came to 10%. For `Cc1c(C)n(Cc2ccc(-c3ccccc3C(=O)O)cc2)c2ccc(C(=O)N[C@@H](C)c3ccc(OC(C)C)cc3)cc12` [Example 201, (S)-4′-((5-((1-(4-isopropoxyphenyl)ethyl)carbamoyl)-2,3-dimethyl-1H-indol-1-yl)methyl)-[1,1′-biphenyl]-2-carboxylic acid] the same measures were 941 nM and 10%. For `Cc1c(C)n(Cc2ccc(-c3ccccc3C(=O)O)cc2)c2ccc(C(=O)N[C@H]3CCN(C(=O)OCc4ccccc4)C3)cc12` [Example 204, (S)-4′-((5-((1-((benzyloxy)carbonyl)pyrrolidin-3-yl)carbamoyl)-2,3-dimethyl-1H-indol-1-yl)methyl)-[1,1′-biphenyl]-2-carboxylic acid], in experiment [2], the activation at 10 µM was 0%. On to `Cc1c(C)n(Cc2ccc(-c3ccccc3C(=O)O)cc2)c2ccc(C(=O)N[C@@H](C)c3ccc(Cl)c(C(F)(F)F)c3)cc12` [Example 222, (S)-4′-((5-((1-(4-chloro-3-(trifluoromethyl)phenyl)ethyl)carbamoyl)-2,3-dimethyl-1H-indol-1-yl)methyl)-[1,1′-biphenyl]-2-carboxylic acid], for which, in experiment [2], the EC50 worked out at 193 nM and the activation at 10 µM was 5%.

A word on the IC50: it is the point on the concentration scale where inhibition reaches its midpoint. The EC50 is the concentration needed to bring the measured effect to its halfway point.
